Values quoted from earlier work in patent US6635280B2, “Extending the duration of drug release within the stomach during the fed mode” (DepoMed, Inc., priority 1997, dated 2003).

Details: oral doses administered with or following a meal

area under the plasma concentration-time curve, increase with or following a meal: two-fold to three-fold
peak plasma concentration, increase with or following a meal: two-fold to three-fold
SMILES: Cc1c(O)cccc1C(=O)N[C@@H](CSc1ccccc1)[C@H](O)CN1C[C@H]2CCCC[C@H]2C[C@H]1C(=O)NC(C)(C)C [nelfinavir]
